Source: article PMC4354947 (Journal of medicinal chemistry, 2012)
Where two headings read alike, the source gives them in different places.

How the values were obtained:
[1] = system: human eNPP1; test: Resistance to degradation by human eNPP1; format: in vitro ADME; conditions: after 20 min, 37 °C, pH 8.5
[2] = target: T1, turkey P2Y1 receptor (Meleagris gallopavo, UniProt P49652); conditions: read-out: EC50 at P2Y1R, cited from earlier work
[3] = system: isolated rat pancreas; conditions: listed as IA; cited from earlier work
[4] = system: insulin secretion; conditions: cited from earlier work
[5] = Chemical stability at acidic pH 1.4; format: physicochemical; conditions: pH 1.4, 37 °C, pseudo-first-order model
[6] = system: blood glucose levels; test: Oral glucose tolerance test in naive mice; format: in vivo, mouse; conditions: OGTT; for effect on blood glucose levels: 30 mg/kg iv
[7] = system: blood glucose levels; test: Glucose tolerance test in STZ diabetic mouse model; format: in vivo; conditions: STZ diabetic mice, 30 mg/kg iv
[8] = target: T1, turkey P2Y1 receptor; test: Increase in [Ca2+]i in 1321N1 astrocytoma cells expressing turkey P2Y1 receptor; format: cell-based
[9] = system: blood glucose levels; test: Oral glucose tolerance test in naive rats; format: in vivo, rat; conditions: OGTT, 30 mg/kg iv, within 45 min, saline 155 mg/dL
[10] = system: P2Y6 receptor; test: Agonist activity at P2Y6 receptor; format: cell-based; conditions: data not shown
[11] = system: P2Y4 receptor; test: Agonist activity at P2Y4 receptor; format: cell-based; conditions: data not shown
[12] = Solubility in aqueous media; format: physicochemical
[13] = system: P2Y2 receptor; test: Agonist activity at P2Y2 receptor; format: cell-based; conditions: data not shown
[14] = system: tail bleeding; test: Tail-bleed assay in rats, oral administration; format: in vivo, rat; conditions: oral 30 mg/kg, 30 min before tail-cut
[15] = system: blood glucose levels; test: Glucose tolerance test in db+/db- diabetic mouse model; format: in vivo; conditions: db+/db− mice, 30 mg/kg iv
[16] = read-out: EC50 at P2Y1R, increase in [Ca2+]i, human 1321N1 astrocytoma cells, turkey P2Y1R

T1 sequence (P49652 whole entry): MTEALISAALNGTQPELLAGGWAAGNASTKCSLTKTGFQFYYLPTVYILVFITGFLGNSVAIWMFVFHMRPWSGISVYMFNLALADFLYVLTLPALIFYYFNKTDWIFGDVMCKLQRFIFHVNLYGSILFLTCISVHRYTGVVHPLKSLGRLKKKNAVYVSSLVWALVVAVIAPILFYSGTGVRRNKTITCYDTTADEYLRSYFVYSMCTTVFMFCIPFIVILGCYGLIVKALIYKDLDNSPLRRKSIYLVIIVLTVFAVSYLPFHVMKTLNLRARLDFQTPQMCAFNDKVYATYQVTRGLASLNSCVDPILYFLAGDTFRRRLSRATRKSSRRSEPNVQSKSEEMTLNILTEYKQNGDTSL

## CSc1nc(N)c2ncn([C@@H]3O[C@H](COP(=O)(O)OP(=O)(O)O)[C@@H](O)[C@H]3O)c2n1 [2-MeS-ADP, reference compound]
[1]
  % hydrolysis of human eNPP1: 16%

## Nc1ncnc2c1ncn2[C@@H]1O[C@H](COP(=O)(O)OP(=O)(O)O)[C@@H](O)[C@H]1O [ADP, adenosine 5′ diphosphate, reference compound]
[1]
  % hydrolysis of human eNPP1: 25%

## BP(=O)(OCC1OC(n2cnc3c(N)ncnc32)C(O)C1O)OP(=O)(O)OP(=O)(O)OCC1OC(n2cnc3c(N)ncnc32)C(O)C1O (stereo not drawn) [Ap3(α-B)A]
[2]; first-named (A) isomer
  EC50: 760 nM
[2]; second-named (B) isomer
  EC50: 800 nM

## [BH3-][P@@](=O)(OC[C@H]1O[C@@H](n2cnc3c(N)nc(SC)nc32)[C@H](O)[C@@H]1O)OP(=O)([O-])OP(=O)([O-])[O-].[Na+].[Na+].[Na+].[Na+] [analogue 1A, 2-methylthio-ATP(α-B)]
[3]
  increase of insulin secretion over basal secretion: up to 9 fold
[4]
  insulin secretion in vivo: failed to induce insulin secretion in vivo

## [BH3-][P@@](=O)(OC[C@H]1O[C@@H](n2cnc3c(N)ncnc32)[C@H](O)[C@@H]1O)OP(=O)([O-])[O-].[Na+].[Na+].[Na+] [analogue 2A, ADP(α-B)]
[1]
  % hydrolysis of human eNPP1: 5%

## [BH3-]P(=O)(OC[C@H]1O[C@@H](n2cnc3c(N)nc(SC)nc32)[C@H](O)[C@@H]1O)OP(=O)([O-])[O-].[Na+].[Na+].[Na+] (stereo partly shown) [analogue 3, 2-Methylthioadenosine 5′-O-(′-Borano)diphosphate]
[5]
  hydrolysis rate constant at pH 1.4: 2 × 10^−5 s^−1
[6]
  effect on blood glucose levels: less effective than analogue 3A alone

## [BH3-][P@@](=O)(OC[C@H]1O[C@@H](n2cnc3c(N)nc(SC)nc32)[C@H](O)[C@@H]1O)OP(=O)([O-])[O-].[Na+].[Na+].[Na+] [analogue 3A, 2-Methylthioadenosine 5′-O-(′-Borano)diphosphate, A Isomer]
[7]
  effect on blood glucose levels: lower blood glucose levels to normal values
[8]
  EC50: 38 nM
[9]
  blood glucose level after glucose load: ca. 87 mg/dL
[10]
  agonist activity at P2Y6 receptor: no activity
[11]
  agonist activity at P2Y4 receptor: no activity
[12]
  solubility in aqueous media: highly soluble
[1]
  % hydrolysis of human eNPP1: 4%
[13]
  agonist activity at P2Y2 receptor: no activity
[6]; 10 and 30 mg/kg iv
  effect on blood glucose levels, dose comparison: higher dose being more effective at reducing the glucose load
[14]
  bleeding time: increased
  tail bleeding blood volume: increased
[15]
  effect on blood glucose levels: lower blood glucose levels to normal values

## [BH3-][P@](=O)(OC[C@H]1O[C@@H](n2cnc3c(N)nc(SC)nc32)[C@H](O)[C@@H]1O)OP(=O)([O-])[O-].[Na+].[Na+].[Na+] [analogue 3B, 2-Methylthioadenosine 5′-O-(′-Borano)diphosphate, B Isomer]
[6]
  effect on blood glucose levels: ineffective

## P1-Borano P1,P3-5′-Di-2-methylthioadenosine 5′-Triphosphate [analogue 4]
[8]; analogue 4 isomers vs Ap3(α-B)A isomers
  fold increase in potency at P2Y1R by MeS substitution at C2: 4.6 fold

## P^1-Borano P^1,P^3-5′-Di-2-methylthioadenosine 5′-Triphosphate, A Isomer [analogue 4A]
[8]; [16]
  EC50: 140 nM

## P^1-Borano P^1,P^3-5′-Di-2-methylthioadenosine 5′-Triphosphate, B Isomer [analogue 4B]
[8]; [16]
  EC50: 190 nM
